# Experimental data as given in PubChem BioAssay AID1418 (Emory University Molecular Libraries Screening Center, 2008).
# pIC50: −log10 of the molar value. Calls of active or inactive are those of the source. The rule behind the calls is not given here.
# Target: Induced myeloid leukemia cell differentiation protein Mcl-1 (Homo sapiens) (UniProt Q07820)
# Experiment: blockers of Bid binding to Mcl-1 – biochemical, TR-FRET, dose response (AID 1418)
# Conditions: Mcl-1/Bid peptide binding, TR-FRET (europium/Dy647), 2 hr
# Chain of Induced myeloid leukemia cell differentiation protein Mcl-1 (Homo sapiens) (Q07820 whole entry, looked up): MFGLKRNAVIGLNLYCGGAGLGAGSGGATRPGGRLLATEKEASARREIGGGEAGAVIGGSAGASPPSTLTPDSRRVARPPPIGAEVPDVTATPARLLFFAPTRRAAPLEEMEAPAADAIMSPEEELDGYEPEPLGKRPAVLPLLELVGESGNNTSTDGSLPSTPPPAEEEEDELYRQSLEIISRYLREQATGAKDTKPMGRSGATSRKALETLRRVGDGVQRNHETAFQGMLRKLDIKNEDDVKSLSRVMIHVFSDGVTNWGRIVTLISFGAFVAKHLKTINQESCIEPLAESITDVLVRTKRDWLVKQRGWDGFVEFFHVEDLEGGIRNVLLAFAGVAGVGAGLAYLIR
SMILES,pIC50,IC50
O=C(Nc1ccc(S(=O)(=O)Nc2ncccn2)cc1)c1ccc2ncsc2c1,6.07,–
Cc1ccc(-c2nnc(N3CC(C)OC(C)C3)c3ccccc23)cc1 (stereo not given),–,> 54 µM (inactive)
Cc1cccc(NC(=O)c2cc(N3C(=O)CCC3=O)ccc2Cl)n1,–,> 54 µM (inactive)
O=[N+]([O-])c1cc(Cl)cc(/C=N/NC(=S)Nc2cc(S(=O)(=O)N3CCOCC3)ccc2Cl)c1O,5.14,–
Cc1cccc(N2CCN(C(=S)Nc3ccc4nc(N5CCN(C)CC5)cc(C)c4c3)CC2)c1C,5.53,–
O=c1[nH]c(-c2ccccc2Cl)nc2c1sc(=S)n2-c1ccccc1,–,> 54 µM (inactive)
COc1ccc(-c2nnn(CC(=O)N(CCCO)C(C(=O)NC3CCCC3)c3ccncc3)n2)cc1 (stereo not given),–,> 54 µM (inactive)
O=C(NC1CCCC1)c1csc2c1CCCC2,–,> 54 µM (inactive)
CCN(CC)c1ccc(/C=N/Nc2cccc(C)c2)c(O)c1,–,> 54 µM (inactive)
C#CCn1cc(/C=N/NC(=O)COc2cccc3cccnc23)c2ccccc21,6.07,–
CCOC(=O)c1sc2nc3c(SCCC(=O)O)cc(C(=O)c4cc(OC)ccc4O)cn3c(=O)c2c1C,5.78,–
CCSc1nnc(NC(=O)C(Cc2ccccc2)n2cccc2)s1 (stereo not given),–,> 54 µM (inactive)
COc1cc(OC)cc(C(=O)Nc2ccc(-c3nc4ccccc4o3)c(O)c2)c1,5.44,–
Cn1c2c(c(=O)n(C)c1=O)C1c3cc(Cl)ccc3OCC1CO2 (stereo not given),–,> 54 µM (inactive)
O=C(CCS(=O)(=O)c1ccc(Br)s1)NC1CCCCCC1,–,> 54 µM (inactive)
CCN1/C(=C\C=C2\C(=O)N(c3ccccc3)C(=S)N2C)Sc2ccccc21,5.53,–
CCOC(=O)Nc1ccc2c(c1)N(C(=O)OCCN(C)C)c1ccccc1CC2,–,> 54 µM (inactive)
O=C(CSc1nc2c(cnn2-c2ccc(F)cc2)c(=O)[nH]1)N1CCCc2ccccc21,–,> 54 µM (inactive)
CNC(=O)CN(C1CCCCC1)S(=O)(=O)c1ccc(OC)c(Cl)c1,–,> 54 µM (inactive)
C=CCn1cc(/C=N/NC(=O)COc2cccc3cccnc23)c2ccccc21,5.47,–
CCc1ccc(NC(=O)c2ccnc(C(C)(C)C)c2)cc1,–,> 54 µM (inactive)
C=C(C(=O)c1ccccc1)C(C(=C)C(=O)c1ccccc1)c1ccc(OC)cc1,–,> 54 µM (inactive)
O=C(O)CCCN1C(=O)/C(=C/c2cn(-c3ccccc3)nc2-c2cccs2)SC1=S,5.18,–
COc1ccc(OC(=O)c2ccncc2)cc1,–,> 54 µM (inactive)

SMILES,pIC50,IC50
COc1ccc(C(=O)/C=C/c2ccc(N3CCCCC3)c([N+](=O)[O-])c2)cc1,–,> 54 µM (inactive)
CCN1/C(=C/C=C/c2oc3ccc4ccccc4c3[n+]2CC)Oc2ccc3ccccc3c21,6.24,–
COc1ccc(CN2C(=O)/C(=C/c3ccc(-c4ccc(Cl)c(C(=O)O)c4)o3)SC2=S)cc1,5.78,–
O=C(O)/C=C\C(=O)N1CCc2ccccc21,–,> 54 µM (inactive)
O=C1CSC(c2cccnc2)N1c1ccc(Cl)cc1 (stereo not given),–,> 54 µM (inactive)
Cc1occc1C(=O)N/N=C/c1ccc(N(C)C)cc1,–,> 54 µM (inactive)
Cc1ccc(C(=O)OC2=CC(=O)CC(C)(C)C2)cc1,–,> 54 µM (inactive)
Cc1ccc(NC(=O)CN2C(=O)/C(=C3\SC(=S)N(C4CCS(=O)(=O)C4)C3=O)c3ccccc32)cc1 (stereo not given),6.27,–
Cc1cccc(N2CCN(C(=O)Cc3ccc(-n4c(=O)[nH]c5ccsc5c4=O)cc3)CC2C)c1 (stereo not given),–,> 54 µM (inactive)
COC(=O)c1ccc(COC(=O)c2ccc(CS(=O)(=O)c3ccc(C)cc3)cc2)cc1,5.89,–
Nc1ccc(N)c(C(=O)O)c1,4.54,–
CCOc1ccc(NC(=O)CC2C(=O)N(c3ccc(OC)cc3)C(=S)N2Cc2ccccn2)cc1 (stereo not given),–,> 54 µM (inactive)
COc1cccc(OC)c1C(=O)N1CCN(Cc2ccncc2)CC1,–,> 54 µM (inactive)
O=C(CN1C(=O)COc2ccccc21)N(Cc1ccc2c(c1)OCO2)CC1CCCO1 (stereo not given),–,> 54 µM (inactive)
CCN(CC)CCNC(=O)/C(=C/c1cn(C)c2ccccc12)NC(=O)c1ccc(OC)c(OC)c1,–,> 54 µM (inactive)
C#CCOCCOCCOCCNc1nc(N2CCN(C(=O)[C@H](Cc3cc4ccccc4[nH]3)n3cc([C@@H](N)C(C)CC)nn3)CC2)nc(N2CCN(C(=O)[C@H](Cc3cc4ccccc4[nH]3)n3cc([C@@H](N)Cc4ccc(O)cc4)nn3)CC2)n1 (stereo not given in full),–,> 54 µM (inactive)
CCCCN1C(=O)/C(=C/C=C/c2ccco2)C(=O)NC1=S,5.08,–
O=c1cc(-c2ccc([N+](=O)[O-])cc2)nc2cc(-c3ccc(Cl)cc3)[nH]n12,5.30,–
O=c1n(S(=O)(=O)c2cccc3cccnc23)c2ccccc2n1S(=O)(=O)c1cccc2cccnc12,–,> 54 µM (inactive)
CCOc1ccc2nc(NC(=O)c3cccc(-c4cc5ccccc5oc4=O)c3)sc2c1,5.71,–
CCCCCCn1c(O)c(C=NCCN2CCOCC2)c(=O)[nH]c1=O,–,> 54 µM (inactive)
CCOC(=O)c1ccc(NC(=O)Oc2ccccc2)cc1,–,> 54 µM (inactive)
C[N+](C)(C)c1ccc(/C=N/Nc2nc(Cl)c(C#N)c(Cl)c2Cl)cc1,–,> 54 µM (inactive)
COc1ccccc1NC(=O)c1cn(C)c(=O)c2cc(OC)c(OC)cc12,–,> 54 µM (inactive)

SMILES,pIC50,IC50
O=C(NC(=S)Nc1ccc(S(=O)(=O)N2CCCCC2)cc1)c1cccs1,–,> 54 µM (inactive)
O=C(Nc1ccccn1)c1ccc([N+](=O)[O-])cc1Cl,–,> 54 µM (inactive)
COc1ccc2nc(NC(=O)c3ccc(-c4cccc([N+](=O)[O-])c4)o3)sc2c1,6.09,–
O=[N+]([O-])c1cc(Cl)cc(/C=N\Nc2ccccn2)c1O,5.03,–
Cc1cccc(C(=O)Nc2ccnc(-c3cccnc3)n2)c1,–,> 54 µM (inactive)
Cc1cccc2cc(/C=N/NC(=O)CN3CCOCC3)c(Cl)nc12,–,> 54 µM (inactive)
Cc1nn(-c2ccccc2C(=O)O)c(=O)c2ccccc12,–,> 54 µM (inactive)
CC(C)(C)CC(=O)O/N=C(\N)c1ccccn1,–,> 54 µM (inactive)
CC(Sc1nnc2c(n1)C1CCC2(C)C1(C)C)C(=O)Nc1ccccc1 (stereo not given),–,> 54 µM (inactive)
CCc1ccc(NC(=S)NC2CC3CCC(C2)N3Cc2ccco2)cc1 (stereo not given),–,> 54 µM (inactive)
COc1cc(/C=C2\SC(=O)N(c3cccc(Cl)c3)C2=O)cc([N+](=O)[O-])c1O,5.20,–
CN1C(=O)CN=C(c2ccc(Cl)cc2)c2cc(Cl)ccc21,–,> 54 µM (inactive)
O=C(COC(=O)CCNS(=O)(=O)c1ccc2c(c1)OCCO2)NC1CCCc2ccccc21 (stereo not given),–,> 54 µM (inactive)
Clc1cccc(Cl)c1CON/C=N/c1ncnc2sccc12,–,> 54 µM (inactive)
Cc1ccc(-c2nc(N3CCOCC3)sc2C(=O)N2CCCCC2)cc1,–,> 54 µM (inactive)
CCOC(=O)CSc1nc(C2CC2)cc(-c2ccc(Cl)cc2)c1C#N,–,> 54 µM (inactive)
O=[N+]([O-])c1ccc(NC(=S)NCCc2ccc(Cl)cc2)cc1,–,> 54 µM (inactive)
Cc1ccc(CSc2nnc(SCC(=O)N/N=C/c3c[nH]c4ccccc34)s2)cc1,6.28,–
Fc1cc(F)c2nc(Nc3nc4cc5c(cc4s3)OCO5)sc2c1,6.23,–
O=c1c2cc(Cl)ccc2nc(-c2ccccc2Cl)n1O,–,> 54 µM (inactive)
O=C(O)CCCCCN1C(=O)/C(=C\c2cn(-c3ccccc3)nc2-c2cccs2)SC1=S,5.03,–
CC(=O)C1=C(C)NC(SCC(N)=O)=C(C#N)C1c1cccnc1 (stereo not given),–,> 54 µM (inactive)
